Assay results from US20230139171A1 (SITA Information Networking Computing UK Limited, priority 2019, published 2023).

Assays:
Format in all cases: cell-based
human TLR7 = biological target: T1, human TLR7 (Homo sapiens, UniProt Q9NYK1); test: TLR7 inhibition reporter assay (HEK-Blue cells, SEAP reporter, gardiquimod stimulation); settings: HEK-Blue cells overexpressing human TLR7, SEAP reporter, gardiquimod 7.5 μM; read-out: TLR7 IC50
T1 construct: host or cells: HEK-Blue cells
T1 sequence (Q9NYK1 27-1049): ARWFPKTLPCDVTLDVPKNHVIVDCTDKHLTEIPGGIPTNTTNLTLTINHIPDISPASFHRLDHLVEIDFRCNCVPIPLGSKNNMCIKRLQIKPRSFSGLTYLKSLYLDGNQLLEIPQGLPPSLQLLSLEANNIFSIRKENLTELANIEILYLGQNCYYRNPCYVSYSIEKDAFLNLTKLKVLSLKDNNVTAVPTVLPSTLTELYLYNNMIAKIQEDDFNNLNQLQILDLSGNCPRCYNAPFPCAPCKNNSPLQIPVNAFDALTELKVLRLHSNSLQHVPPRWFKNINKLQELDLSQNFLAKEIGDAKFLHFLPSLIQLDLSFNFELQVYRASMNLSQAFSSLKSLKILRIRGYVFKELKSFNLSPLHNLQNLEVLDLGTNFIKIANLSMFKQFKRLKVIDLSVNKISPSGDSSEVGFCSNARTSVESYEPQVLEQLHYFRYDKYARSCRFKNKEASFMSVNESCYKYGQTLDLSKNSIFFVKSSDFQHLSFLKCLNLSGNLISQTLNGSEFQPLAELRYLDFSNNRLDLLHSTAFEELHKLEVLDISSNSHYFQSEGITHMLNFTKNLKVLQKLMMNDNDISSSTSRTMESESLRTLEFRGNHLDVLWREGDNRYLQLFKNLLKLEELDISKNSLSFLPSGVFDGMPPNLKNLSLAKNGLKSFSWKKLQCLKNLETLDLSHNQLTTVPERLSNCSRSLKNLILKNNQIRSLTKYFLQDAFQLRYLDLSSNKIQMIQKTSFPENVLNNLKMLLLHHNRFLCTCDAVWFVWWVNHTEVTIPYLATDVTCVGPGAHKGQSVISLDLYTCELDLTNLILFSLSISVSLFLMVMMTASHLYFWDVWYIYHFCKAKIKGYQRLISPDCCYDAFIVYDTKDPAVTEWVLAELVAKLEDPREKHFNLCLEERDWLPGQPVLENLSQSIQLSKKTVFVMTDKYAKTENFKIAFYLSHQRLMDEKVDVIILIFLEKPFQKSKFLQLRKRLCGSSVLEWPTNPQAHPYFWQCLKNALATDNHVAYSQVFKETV
Procedure, shortened: (§1)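 Screening used HEK-Blue cells overexpressing one human TLR (7, 8 or 9) and an IFN-β minimal promoter–NF-κB/AP-1 SEAP construct. Stimulation lasted 22 h at 37 °C with receptor-specific agonist: gardiquimod, R848 or ODN2006 at 7.5 μM, 15.9 μM and 5 nM.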

human TLR8 = biological target: T2, human TLR8 (Homo sapiens, UniProt Q9NR97); test: TLR8 inhibition reporter assay (HEK-Blue cells, SEAP reporter, R848 stimulation); settings: HEK-Blue cells overexpressing human TLR8, SEAP reporter, R848 15.9 μM; read-out: TLR8 IC50
T2 construct: host or cells: HEK-Blue cells
T2 sequence (Q9NR97 27-1041): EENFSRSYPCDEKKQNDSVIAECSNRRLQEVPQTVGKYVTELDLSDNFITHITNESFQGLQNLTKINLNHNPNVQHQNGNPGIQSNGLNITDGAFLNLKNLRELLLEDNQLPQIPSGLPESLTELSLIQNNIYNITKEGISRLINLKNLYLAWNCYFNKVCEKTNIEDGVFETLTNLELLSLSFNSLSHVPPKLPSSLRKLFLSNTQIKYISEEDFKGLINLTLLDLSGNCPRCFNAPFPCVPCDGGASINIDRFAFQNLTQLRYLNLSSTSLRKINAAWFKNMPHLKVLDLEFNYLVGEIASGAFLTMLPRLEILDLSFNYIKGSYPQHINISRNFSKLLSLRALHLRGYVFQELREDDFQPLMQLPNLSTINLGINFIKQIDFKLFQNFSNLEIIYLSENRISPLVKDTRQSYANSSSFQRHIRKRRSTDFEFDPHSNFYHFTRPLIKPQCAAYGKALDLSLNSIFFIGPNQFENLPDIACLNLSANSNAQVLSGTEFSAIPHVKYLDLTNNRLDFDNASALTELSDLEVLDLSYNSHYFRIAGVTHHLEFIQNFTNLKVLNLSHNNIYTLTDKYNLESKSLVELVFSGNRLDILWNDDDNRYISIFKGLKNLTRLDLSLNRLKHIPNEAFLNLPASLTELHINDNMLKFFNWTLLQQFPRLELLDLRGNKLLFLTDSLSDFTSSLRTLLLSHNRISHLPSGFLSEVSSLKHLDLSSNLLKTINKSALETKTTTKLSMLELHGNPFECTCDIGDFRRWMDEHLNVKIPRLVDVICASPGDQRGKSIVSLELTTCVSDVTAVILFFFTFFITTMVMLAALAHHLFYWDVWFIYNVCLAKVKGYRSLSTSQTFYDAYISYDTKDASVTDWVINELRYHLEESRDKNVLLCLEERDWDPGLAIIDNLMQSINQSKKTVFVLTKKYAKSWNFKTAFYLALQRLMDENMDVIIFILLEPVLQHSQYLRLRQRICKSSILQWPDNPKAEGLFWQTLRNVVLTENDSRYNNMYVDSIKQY
Procedure, shortened: as §1

human TLR9 = biological target: T3, human TLR9 (Homo sapiens, UniProt Q9NR96); test: TLR9 inhibition reporter assay (HEK-Blue cells, SEAP reporter, ODN2006 stimulation); settings: HEK-Blue cells overexpressing human TLR9, SEAP reporter, ODN2006 5 nM
T3 construct: host or cells: HEK-Blue cells
T3 sequence (Q9NR96 26-1032): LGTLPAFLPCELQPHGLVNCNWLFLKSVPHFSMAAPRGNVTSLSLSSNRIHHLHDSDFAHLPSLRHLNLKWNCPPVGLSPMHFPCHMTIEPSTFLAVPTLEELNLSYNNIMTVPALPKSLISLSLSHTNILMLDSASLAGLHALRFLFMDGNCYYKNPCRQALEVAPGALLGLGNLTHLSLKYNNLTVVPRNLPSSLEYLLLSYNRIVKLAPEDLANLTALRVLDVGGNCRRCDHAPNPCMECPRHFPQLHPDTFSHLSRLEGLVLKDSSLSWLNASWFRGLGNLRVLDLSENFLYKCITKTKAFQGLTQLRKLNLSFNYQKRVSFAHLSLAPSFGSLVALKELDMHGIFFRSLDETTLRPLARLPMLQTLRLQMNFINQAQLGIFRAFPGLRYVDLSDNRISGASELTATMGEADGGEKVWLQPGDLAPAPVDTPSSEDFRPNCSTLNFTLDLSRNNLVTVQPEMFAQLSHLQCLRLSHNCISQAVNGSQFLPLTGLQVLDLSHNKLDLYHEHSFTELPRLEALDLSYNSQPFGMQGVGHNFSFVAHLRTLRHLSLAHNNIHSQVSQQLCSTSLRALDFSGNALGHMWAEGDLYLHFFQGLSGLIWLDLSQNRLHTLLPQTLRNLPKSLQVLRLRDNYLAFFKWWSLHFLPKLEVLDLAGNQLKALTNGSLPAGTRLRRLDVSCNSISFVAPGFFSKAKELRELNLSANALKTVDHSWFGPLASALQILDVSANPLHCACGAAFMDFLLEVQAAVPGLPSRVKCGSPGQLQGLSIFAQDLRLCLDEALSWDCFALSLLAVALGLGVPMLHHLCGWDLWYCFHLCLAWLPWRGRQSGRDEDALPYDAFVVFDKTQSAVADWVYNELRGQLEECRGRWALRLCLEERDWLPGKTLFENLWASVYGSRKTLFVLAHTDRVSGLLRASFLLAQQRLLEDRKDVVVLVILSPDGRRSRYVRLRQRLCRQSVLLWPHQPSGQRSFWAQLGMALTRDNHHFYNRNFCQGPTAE
Procedure, shortened: as §1

SMILES	IC50 (human TLR7) [nM]	IC50 (human TLR8) [nM]	IC50 (human TLR9) [nM]
Cc1c(-c2[nH]c3sc(N4CCC(NCC(C)(C)O)CC4)nc3c2C(C)C)cn2ncnc2c1C [Example 291, 1-((1-(5-(7,8-dimethyl-[1,2,4]triazolo[1,5-a]pyridin-6-yl)-6-isopropyl-4H-pyrrolo[3,2-d]thiazol-2-yl)piperidin-4-yl)amino)-2-methylpropan-2-ol]	7.65	0.39	16800
Cc1c(-c2[nH]c3sc(N4CCC(N(C)C(C)C)CC4)nc3c2C(C)C)cn2ncnc2c1C [Example 292, 1-(5-(7,8-dimethyl-[1,2,4]triazolo[1,5-a]pyridin-6-yl)-6-isopropyl-4H-pyrrolo[3,2-d]thiazol-2-yl)-N-isopropyl-N-methylpiperidin-4-amine]	3.18	0.46	7520
COC(C)(C)CNC1CCN(c2nc3c(C(C)C)c(-c4cn5ncnc5c(C)c4C)[nH]c3s2)CC1 [Example 294, 1-(5-(7,8-dimethyl-[1,2,4]triazolo[1,5-a]pyridin-6-yl)-6-isopropyl-4H-pyrrolo[3,2-d]thiazol-2-yl)-N-(2-methoxy-2-methylpropyl)piperidin-4-amine]	7.97	0.42	8990
Cc1c(-c2[nH]c3sc(N4CCC(NCC5(C)COC5)CC4)nc3c2C(C)C)cn2ncnc2c1C [Example 295, 1-(5-(7,8-dimethyl-[1,2,4]triazolo[1,5-a]pyridin-6-yl)-6-isopropyl-4H-pyrrolo[3,2-d]thiazol-2-yl)-N-((3-methyloxetan-3-yl)methyl) piperidin-4-amine]	4.94	0.28	9710
Cc1c(-c2[nH]c3sc(N4CCC(NC(C)C)CC4)nc3c2C(C)C)cn2ncnc2c1C [Example 297, 1-(5-(7,8-dimethyl-[1,2,4]triazolo[1,5-a]pyridin-6-yl)-6-isopropyl-4H-pyrrolo[3,2-d]thiazol-2-yl)-N-isopropylpiperidin-4-amine]	2.25	0.27	8910
CCN(C)C1CCN(c2nc3c(C(C)C)c(-c4cn5ncnc5c(C)c4C)[nH]c3s2)CC1 [Example 298, 1-(5-(7,8-dimethyl-[1,2,4]triazolo[1,5-a]pyridin-6-yl)-6-isopropyl-4H-pyrrolo[3,2-d]thiazol-2-yl)-N-ethyl-N-methylpiperidin-4-amine]	1.56	0.43	7410

Second part, the compound after the results:

IC50 (human TLR7) [nM]	IC50 (human TLR8) [nM]	IC50 (human TLR9) [nM]	SMILES
13.3	0.54	29200	Cc1c(-c2[nH]c3sc(N4CCN(C5CCOCC5)CC4)nc3c2C(C)C)cn2ncnc2c1C [Example 287, 5-(7,8-dimethyl-[1,2,4]triazolo[1,5-a]pyridin-6-yl)-6-isopropyl-2-(4-(tetrahydro-2H-pyran-4-yl)piperazin-1-yl)-4H-pyrrolo[3,2-d]thiazole]
15.2	0.52	14200	Cc1c(-c2[nH]c3sc(N4CCN(C(C)C)CC4)nc3c2C(C)C)cn2ncnc2c1C [Example 288, 5-(7,8-dimethyl-[1,2,4]triazolo[1,5-a]pyridin-6-yl)-6-isopropyl-2-(4-isopropylpiperazin-1-yl)-4H-pyrrolo[3,2-d]thiazole]
5.19	0.97	19700	Cc1c(-c2[nH]c3sc(N4CCN(CC5(C)COC5)CC4)nc3c2C(C)C)cn2ncnc2c1C [Example 289, 5-(7,8-dimethyl-[1,2,4]triazolo[1,5-a]pyridin-6-yl)-6-isopropyl-2-(4-((3-methyloxetan-3-yl)methyl)piperazin-1-yl)-4H-pyrrolo[3,2-d]thiazole]
8.56	1.09	22100	Cc1c(-c2[nH]c3sc(N4CCC(NC5(C)COC5)CC4)nc3c2C(C)C)cn2ncnc2c1C [Example 290, 1-(5-(7,8-dimethyl-[1,2,4]triazolo[1,5-a]pyridin-6-yl)-6-isopropyl-4H-pyrrolo[3,2-d]thiazol-2-yl)-N-(3-methyloxetan-3-yl)piperidin-4-amine]
2.98	0.38	6650	Cc1c(-c2[nH]c3sc(N4CCC(NC5CCC5)CC4)nc3c2C(C)C)cn2ncnc2c1C [Example 293, N-cyclobutyl-1-(5-(7,8-dimethyl-[1,2,4]triazolo[1,5-a]pyridin-6-yl)-6-isopropyl-4H-pyrrolo[3,2-d]thiazol-2-yl) piperidin-4-amine]
3.45	0.73	33800	Cc1c(-c2[nH]c3sc(N4CCC(NC5COC5)CC4)nc3c2C(C)C)cn2ncnc2c1C [Example 296, 1-(5-(7,8-dimethyl-[1,2,4]triazolo[1,5-a]pyridin-6-yl)-6-isopropyl-4H-pyrrolo[3,2-d]thiazol-2-yl)-N-(oxetan-3-yl)piperidin-4-amine]
1.42	0.72	12700	Cc1c(-c2[nH]c3sc(N4CCC(N)CC4)nc3c2C(C)C)cn2ncnc2c1C [Example 299, 1-(5-(7,8-dimethyl-[1,2,4]triazolo[1,5-a]pyridin-6-yl)-6-isopropyl-4H-pyrrolo[3,2-d]thiazol-2-yl)piperidin-4-amine]
